Assay: gradient 5% acetonitrile 3 min, to 50% in 2 min, to 85% in 15 min, held 3 min, 100 µL/min
Conditions: column: Zorbax Extend-C18 2.1 x 50 mm; eluents: water / acetonitrile, 0.1% formic acid
In short: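 Data were gathered over 3 months by HPLC coupled to a quadrupole time-of-flight mass spectrometer, operated in positive and negative ionization mode. Mixtures of ~100 pure standards ran on a Zorbax Extend-C18 column (2.1 × 50 mm, 1.8 μm) at 100 μL/min, with water and acetonitrile each containing 0.1% formic acid and dead and dwell volumes of 40 μL and 900 μL. Retention time was read from adduct peaks picked by computer and checked manually.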

Row | RP-LC retention time | Compound
1 | 609 s | O=C(COc1ccc(F)cc1)NCC(=O)N1CCN(c2ccccn2)CC1
2 | 1030 s | Cc1ccc2c(c1)OCC(=O)N2Cc1nc(-c2ccc3c(c2)OCO3)no1
3 | 684 s | Cc1ccc(CNC(=O)c2ccc3ncnc(N4CCCC4)c3c2)cc1C
4 | 660 s | Cc1ccc(-c2nnc(N3CCC(C(=O)NCCCN4CCCC4=O)CC3)o2)cc1
5 | 1130 s | O=S(=O)(c1cccc(F)c1)N1CCc2nc(-c3ccc(Cl)cc3)ncc2C1
6 | 643 s | Cc1cccc(NC(=O)N2CCCC2C(=O)N(C)C)c1 (centres undefined)
7 | 1200 s | CCOc1ccc(NC(=O)Cc2c(C)nn(-c3nc(-c4ccc(F)cc4)cs3)c2C)cc1
8 | 676 s | Cc1noc(C)c1CC(=O)N1CCOc2ccc(NC(=O)C3CC3)cc2C1
9 | 1270 s | O=C(Cc1csc(-c2ccccc2)n1)Nc1nc(-c2cccc(Br)c2)cs1
10 | 665 s | CCC1CCCCN1C(=O)c1cnc2nc(C)ccc2c1Nc1ccc(OC)cc1 (centres undefined)
11 | 721 s | CCC(C)NC(=O)c1ccc(CN2CCN(Cc3ccccc3)C(=O)C2=O)cc1 (centres undefined)
12 | 864 s | Cc1ccc2[nH]cc(CCN3CC(C(=O)Nc4nnc(CC(C)(C)C)s4)CC3=O)c2c1 (centres undefined)
13 | 873 s | Cc1ccc(C2Cn3nnc(C(=O)NCC4CC4)c3CO2)cc1 (centres undefined)
14 | 605 s | COc1ccc(CNC(=O)c2cn3ccccc3n2)cc1OC
15 | 1010 s | CCn1c(=O)c2ccccc2n(Cc2nc(-c3ccc(F)cc3)no2)c1=O
16 | 635 s | COCCN(Cc1ccc(Cl)cc1)Cc1cc(=O)n2ccccc2n1
17 | 1150 s | Cc1ccc(C(=O)N2CCc3nc(-c4ccc(Cl)cc4)ncc3C2)cc1F
18 | 926 s | COc1ccc(Cl)cc1NC(=O)CN1C(=O)CC(C)Sc2ccccc21 (centres undefined)
19 | 751 s | CCOc1ccc(NC(=O)NCC(c2cccnc2)c2cn(CC)c3ccccc23)cc1 (centres undefined)
20 | 945 s | CCN(C(=O)c1cc2c(=O)n(CC)c3ccccc3n2n1)c1ccc(F)cc1
21 | 882 s | CN1C(=O)C(C)(C)COc2cc(NC(=O)CCSc3ccccc3)ccc21

Row | RP-LC retention time | Compound
22 | 972 s | Cc1ccc(NC(=O)N(C)CCc2noc(COc3cccc(C)c3)n2)cc1
23 | 938 s | Cc1cc(-c2nnc(-c3ccccc3)o2)c(C)n1CC(=O)Nc1ccc(F)cc1
24 | 697 s | CCCNC(=O)c1sc(Nc2cccc(C)n2)nc1C
25 | 866 s | O=C(Cc1ccc(NC(=O)c2ncc(-c3ccccc3)o2)cc1)NCc1cccs1
26 | 971 s | Cc1ccc(S(=O)(=O)N2CCc3c(c(-c4nnc(-c5ccc(F)cc5)o4)nn3C)C2)cc1
27 | 805 s | Cc1nnc2ccc(-c3noc(Cc4ccc(F)cc4)n3)cn12
28 | 944 s | COc1ccccc1NC(=O)c1cnc2c(c1)c(=O)n(C)c(=O)n2-c1ccc(C)cc1
29 | 781 s | Cc1ccc(C)c(NC(=O)C2CCCN(S(=O)(=O)c3cn(C(C)C)cn3)C2)c1 (centres undefined)
30 | 879 s | COc1ccc(-c2nc3cccnc3n2C2CCN(C(=O)NC3CCCC3)C2)cc1 (centres undefined)
31 | 720 s | COCCc1noc(C2Cc3ccccc3N2C(=O)NCC(=O)OC)n1 (centres undefined)
32 | 620 s | Cc1cc(C)c(NC(=O)Cn2ncc3c(N4CCN(c5ccccn5)CC4)ncnc32)c(C)c1
33 | 716 s | COc1ccc(-c2nc3cccnc3n2C2CCN(C(=O)c3ccc4c(c3)OCO4)C2)cc1 (centres undefined)
34 | 655 s | COc1ccc(C(=O)N2CCCC2c2cc(C)on2)cc1OC (centres undefined)
35 | 835 s | COCc1nc(-c2ccc(OC3CCN(C(=O)c4n[nH]c5ccccc45)C3)cc2)no1 (centres undefined)
36 | 880 s | O=C(Cn1ccn2nc(-c3ccc(F)cc3)c(CO)c2c1=O)Nc1cc(F)cc(F)c1
37 | 634 s | COc1ccc(NC(=O)Cn2nc3n(c2=O)CCCC3)cc1
38 | 785 s | CN(C)c1ccc(/C=C/c2ccc3ccccc3n2)cc1
39 | 896 s | COc1ccc(NS(=O)(=O)c2cn(CC(C)C)c3ncccc23)cc1
40 | 889 s | Cc1cccc(CNC(=O)CN2C(=O)CCc3cc(Br)ccc32)c1
41 | 997 s | O=C(Cn1cccc1-c1nnc(-c2ccccc2)o1)Nc1ccc(F)c(F)c1
42 | 832 s | COc1ccc(OCc2noc(CNC(=O)c3cc(-c4ccco4)on3)n2)cc1

Further lines, the compound ahead of its results:

Row | Compound | RP-LC retention time
43 | O=C(Nc1ccc(SCC(=O)N2CCN(c3ccccc3)CC2)nn1)c1ccccc1 | 796 s
44 | Cc1ccc(N2CCN(C(=O)C3CCCN(c4ncnc5c4nc4n5CCCCC4)C3)CC2)c(C)c1 (centres undefined) | 1050 s
45 | COCC1(O)CCOC2(CCN(Cc3ccc(F)cc3)CC2)C1 (centres undefined) | 654 s
46 | O=C(C1CCN(c2cc(N3CCCCC3)ncn2)CC1)N1CCCCC1 | 652 s
47 | Cc1nnc2c(=O)n(CC(=O)N3CCCC(C)C3)c3cccnc3n12 (centres undefined) | 668 s
48 | COc1ccc(S(=O)(=O)N2CCCC(C(=O)Nc3ccc4c(c3)OCCO4)C2)cc1Cl (centres undefined) | 938 s
49 | Cc1ccc(CNC(=O)N2[C@H]3CC[C@@H]2c2cncnc2C3)cc1 | 735 s
50 | O=C(Nc1nnc(-c2ccc(Br)o2)o1)c1ccc(F)cc1F | 740 s
51 | Cn1c(=O)n(CC(=O)N2CCCCC2)c(=O)c2cnc(-c3ccccc3)nc21 | 918 s
52 | COCCNC(=O)C(=O)NCCC(O)C(C)(C)C (centres undefined) | 614 s
53 | Cn1nc(C(=O)N2CCCCC2)c2c1CCN(C(=O)CCC(=O)NC1CCCCCC1)C2 | 728 s
54 | CCC1Oc2ccc(S(=O)(=O)N3CCC(C(=O)NC4CCCCCCC4)CC3)cc2NC1=O (centres undefined) | 977 s
55 | COc1ccc(-c2cc(C(=O)N3CCN(C)CC3)nn2C2CCS(=O)(=O)C2)cc1 (centres undefined) | 613 s
56 | CS(=O)(=O)c1ccc2nc(NC(=O)CN3C(=O)CCC3=O)sc2c1 | 582 s
57 | CN1CCCC2C(c3ccccc3)C(C3=NCCCC3)C(c3ccccc3)CC21 (centres undefined) | 589 s
58 | CCCNC(=O)C1CCCN(c2ccc(SCC(=O)Nc3ccccc3Cl)nn2)C1 (centres undefined) | 617 s
59 | Cc1cc(C)c(C)c(S(=O)(=O)N2CCN(c3nc4ccncc4n(C)c3=O)CC2)c1C | 755 s
60 | O=C1CC(c2ccc(Cl)cc2)Cc2nc(N3CCN(c4ccccn4)CC3)ncc21 (centres undefined) | 752 s
61 | CC1(C(=O)NCc2ccccc2)CN(S(C)(=O)=O)CC(=O)N1c1ccc(F)cc1 (centres undefined) | 750 s
62 | Cc1cc(C)cc(S(=O)(=O)N2CCC(n3cnc4c(C)cccc4c3=O)CC2)c1 | 1070 s
63 | O=C(Nc1cccc(F)c1)N1CCC(N2CCN(Cc3ccccc3)C2=O)CC1 | 827 s
64 | CC(NC(=O)C1(c2ccc(NS(C)(=O)=O)cc2)CCCCC1)c1ccc(F)cc1 (centres undefined) | 952 s
65 | CC(C)CCN1CCc2[nH]nc(C(=O)N(C)C)c2C1 | 575 s
66 | CCOc1ccc(C(=O)N2CCC3(C2)C(=O)N(C)c2ccc(OC)cc23)cc1 (centres undefined) | 788 s

Row | Compound | RP-LC retention time
67 | O=C(Nc1cc(F)cc(F)c1)Nc1cccc(-c2nccnc2N2CCOCC2)c1 | 940 s
68 | O=C(c1ccccc1OCC1CCCN(C2CCC2)C1)N1CCCC1 (centres undefined) | 615 s
69 | O=C(CC1CCN(S(=O)(=O)c2ccc(Cl)s2)CC1)N1CCN(c2ccccn2)CC1 | 672 s
70 | O=C(Nc1ccc(Br)cc1F)N1CCC(n2cnc3cccnc32)CC1 | 690 s
71 | Cc1ccccc1OCC(=O)Nc1cnn(C)c(=O)c1N1CCOCC1 | 810 s
72 | O=C(N[C@H]1C[C@@H]2C[C@H]1CN2C(=O)c1cccc(C(F)(F)F)c1)c1ccccc1 | 809 s
73 | COc1cccc(C(=O)N2CCC3(CC2)NC(=O)c2cc(F)ccc2N3C)c1 | 762 s
74 | O=C(COc1ccccc1)N1CC2CN(S(=O)(=O)c3ccc(F)cc3)CC(C1)O2 | 846 s
75 | Brc1ccc([C@H]2CN3CCSC3=N2)cc1 | 645 s
76 | CCN1CCN(C(=O)Cn2nc(C)c3sc(-c4ccccc4)nc3c2=O)CC1 | 604 s
77 | COCCN1C(=O)c2ccccc2C(C(=O)Nc2nc(C)cs2)C12CCCCC2 (centres undefined) | 810 s
78 | CN(C)C(=O)c1cc2c(s1)CCC(C(=O)NCc1ccccc1)C2 (centres undefined) | 628 s
79 | COc1ccc(-n2c(CN3CCN(C(=O)NC4CCCCC4)CC3)nc3cccnc32)cc1 | 668 s
80 | COCCCN(CC(=O)N1CCc2sccc2C1COc1ccccc1F)C(C)=O (centres undefined) | 764 s
81 | O=C(Nc1ccccc1)NC1CCN(C(=O)N2C[C@H]3C[C@H](C2)[C@H]2CCCC(=O)N2C3)CC1 | 654 s
82 | O=C(NCCCc1ccccc1)C1CCN(C(=O)c2ncn3c2COC(c2ccccc2)C3)CC1 (centres undefined) | 821 s
83 | Cc1cccc(NC(=O)C2CCN(S(=O)(=O)c3cc(C(=O)N4CCCC4)n(C)c3)CC2)n1 | 653 s
84 | O=C(Nc1ccc(F)cc1F)N1CCCC(Cn2c(C3CC3)nc3cccnc32)C1 (centres undefined) | 668 s
85 | Nc1ccc2ncnc(N3CCCCC3)c2c1 | 593 s
86 | CCN1CCn2cc(S(=O)(=O)Nc3cccc(OC)c3)cc2C1=O | 700 s
87 | Cc1nnc(-c2ccc(S(=O)(=O)N3CCN(c4ccccn4)CC3)o2)o1 | 601 s
88 | CC(C)n1nccc1-c1csc(S(=O)(=O)N2CCC3(CC2)OCCO3)c1 | 922 s
89 | C[C@@H](NC(=O)c1ccc(F)c(F)c1)C(=O)NCc1cscn1 | 648 s
